One compound from patent US11944624B2, “Peptide and small molecule agonists of EphA and their uses” (CASE WESTERN RESERVE UNIVERSITY, priority 2017, dated 2024) can be followed below.

Data set [1] concerns MDA-MB-231, A172-A2 and PC3-DAB2IP KD cells. Put plainly: Chemotactic cell migration toward hepatocyte growth factor (HGF). It counts as cell-based. Particulars: all three cell lines. From the text: (§1) One of the well-established functions of Eph receptors is the ligand-dependent repulsive guidance of cell migration. As a ligand-mimicking agonist for EphA2, doxazosin is expected to activate EphA2 on tumor cells and repulse migrating tumor cells in vitro. […] The inhibitory effects were observed when doxazosin was presented either in the bottom chamber, or in both top and bottom chambers in the Transwell assay system. […] Therefore, doxazosin can recapitulate a key function attributed to its native ligands, i.e., negative regulation of cell migration.

For another data set, the target named is T1, endogenous EphB4 (Homo sapiens, UniProt P54760).
T1 construct: host or cells: HEK 293 (vector control)
T1 sequence (P54760 16-987): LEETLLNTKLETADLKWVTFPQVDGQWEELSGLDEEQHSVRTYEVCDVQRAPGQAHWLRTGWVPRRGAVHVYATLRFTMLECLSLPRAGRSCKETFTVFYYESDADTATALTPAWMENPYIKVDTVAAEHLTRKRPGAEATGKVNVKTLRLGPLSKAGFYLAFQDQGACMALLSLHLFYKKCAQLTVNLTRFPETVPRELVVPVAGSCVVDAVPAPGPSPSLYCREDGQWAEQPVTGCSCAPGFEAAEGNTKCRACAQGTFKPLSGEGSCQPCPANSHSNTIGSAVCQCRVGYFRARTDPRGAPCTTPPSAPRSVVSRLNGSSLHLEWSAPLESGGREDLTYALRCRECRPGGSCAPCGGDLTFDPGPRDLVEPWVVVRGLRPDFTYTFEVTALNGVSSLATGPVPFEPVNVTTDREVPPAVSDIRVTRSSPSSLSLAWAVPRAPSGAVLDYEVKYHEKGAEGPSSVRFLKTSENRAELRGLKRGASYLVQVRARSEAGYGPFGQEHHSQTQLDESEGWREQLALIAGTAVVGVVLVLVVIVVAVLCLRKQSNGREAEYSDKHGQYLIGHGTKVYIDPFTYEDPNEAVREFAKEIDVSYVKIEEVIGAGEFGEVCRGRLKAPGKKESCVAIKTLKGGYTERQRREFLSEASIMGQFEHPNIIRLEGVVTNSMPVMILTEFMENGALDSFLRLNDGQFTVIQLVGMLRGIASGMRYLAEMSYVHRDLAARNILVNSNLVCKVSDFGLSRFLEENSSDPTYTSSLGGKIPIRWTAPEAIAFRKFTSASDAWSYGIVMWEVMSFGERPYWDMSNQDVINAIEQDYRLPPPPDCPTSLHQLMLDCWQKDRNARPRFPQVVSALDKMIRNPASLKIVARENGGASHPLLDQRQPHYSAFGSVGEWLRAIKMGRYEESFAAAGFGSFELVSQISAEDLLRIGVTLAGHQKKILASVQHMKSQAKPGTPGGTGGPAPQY
The data set is described as follows: Endogenous EphB4 activation in HEK 293 vector control cells. In kind it is cell-based.

The test system of another data set is PC3-DAB2IP KD cells. Put plainly: In vivo metastasis assay, orthotopic PC3-DAB2IP KD xenograft. Here is the method: PC-3 cells (from ATCC) engineered to express both GFP and DAB2IP shRNA were characterized previously. Cells were suspended in serum free medium and 2,000 cells injected directly into the prostate glands of 7 week old NCr athymic nu/nu mice. Three days after injection, mice were divided into two groups, one receiving vehicle alone (5% DMSO/10% Cremophor/PBS) and another 50 mg/kg doxazosin via intraperitoneal injection daily for 10 days. Mice were sacrificed 14 days later and intact primary tumors were imaged under a UV light box with a Digital camera. Lungs were dissected into separate lobes and GFP-expressing metastases were imaged using an inverted fluorescent microscope (Leica). Metastases were enumerated in the two largest lung lobes and placed into size categories based upon their diameters, measured in number of cells (1-10 cells). Total metastatic burden was calculated in each mouse using the following equation: [burden=Σ (# of foci×focus diameter)].
We took advantage of this newly established model system to test how doxazosin can affect metastasis of prostate cancer. To this end, PC3-DAB2IP KD cells were injected orthotopically into the prostate glands of nude mice. Three days later, recipient mice were subject to systemic treatment by daily i.p. injection of either vehicle control, or 50 mg/kg doxazosin for 10 days. Since these cells also expressed green fluorescent protein (GFP), freshly dissected primary tumors could be readily visualized in a GFP light box (FIG. 7A top panels), and distal metastases to lungs and lymph nodes could be observed and quantified under a fluorescent microscope (FIG. 7A lower panels).
Next, we determined whether doxazosin treatment might impact overall survival. Nude mice orthotopically implanted with the PC3-DAP2IP KD cells were treated for 10 days with either doxazosin, or vehicle control and monitored for survival.

The subject of the next data set is A172-A2 glioma cells. The data set is described as follows: Haptotactic cell migration toward fibronectin, A172-A2. In kind it is cell-based. Particulars: A172-A2, 4 hours.
Text: as §1, with “vitro. To test this possibility, we first investigated the effects of doxazosin on integrin-mediated haptotactic cell migration toward fibronectin in a modified Boyden chamber cell migration assay.” for “vitro.”

A further data set deals with ERK and Akt activities. The data set is described as follows: ERK and Akt activities in LK133A-Vec cells (EphA2 knockout). It counts as cell-based, mice. The protocol: Cells were plated in 24-well dishes at a density of 100,000 cells/well and grown for 24 hours prior to stimulation with appropriate compounds and ephrins for the given amounts of time. Compounds were prepared in DMSO at 500 times the final concentrations and 0.2% DMSO was used as vehicle control. Following treatment, cells were lysed directly in SDS Gel Loading Buffer and immunoblotted as described previously. Immunoprecipitation and immunofluorescence staining was performed as described. For immunoprecipitation, 300,000 cells/well were plated in 6-well dishes and lysed in modified RIPA Buffer (20 mM Tris-HCl pH 7.4, 20 mM NaF, 150 mM NaCl, 10% glycerol, 0.1% SDS, 0.5% DCA, 2 mM EDTA, 1% Triton X-100) following treatment. Either 10 μg of ephrin-A1-Fc, or […] of EphA2 mouse monoclonal antibody (Clone D7, Millipore) were used, and mouse IgG was used as a negative control for EphA2 IP.
To address this question, we utilized an immortalized liver epithelial cell line, LK133A, isolated from a hepatoma induced by DEN in EphA2 knockout mice. Retroviral vector was used to restore EphA2 expression in these cells (LK133A-A2), and cells transduced with an empty vector were used as control (LK133AVec).

Setting [2] is: 50 mg/kg i.p. daily for 10 days, versus vehicle.

Molecules are shown by their SMILES. “Also recorded” adds a separate entry of the source.

Description for endogenous EphB4: Cells were plated in 24-well dishes at a density of 100,000 cells/well and grown for 24 hours prior to stimulation with appropriate compounds and ephrins for the given amounts of time. Compounds were prepared in DMSO at 500 times the final concentrations and 0.2% DMSO was used as vehicle control. Following treatment, cells were lysed directly in SDS Gel Loading Buffer and immunoblotted as described previously. […] For immunoprecipitation, 300,000 cells/well were plated in 6-well dishes and lysed in modified RIPA Buffer (20 mM Tris-HCl pH 7.4, 20 mM NaF, 150 mM NaCl, 10% glycerol, 0.1% SDS, 0.5% DCA, 2 mM EDTA, 1% Triton X-100) following treatment. Either 10 μg of ephrin-A1-Fc, or 4 mg of EphA2 mouse monoclonal antibody (Clone D7, Millipore) were used, and mouse IgG was used as a negative control for EphA2 IP. […] For this purpose, HEK 293 cell lines overexpressing EphA1, EphA2, EphA3, EphA4, and EphB3 kinases were utilized.

Take `COc1cc2nc(N3CCN(C(=O)C4COc5ccccc5O4)CC3)nc(N)c2cc1OC` (stereo not drawn) [Doxazosin, 2-[4-(2,3-Dihydro-1,4-benzodioxine-2-carbonyl)piperazin-1-yl]-6,7-dimethoxyquinazolin-4-amine]: in data set [1], the “chemotactic cell migration toward HGF” value is listed as “dose-dependent inhibition”. For the same compound, the “endogenous EphB4 activation” value on endogenous EphB4 was “endogenous EphB4 was not activated”. The side effects entry with PC3-DAB2IP KD cells (50 mg/kg i.p. daily for 10 days) is “no notable side effects”. For the same compound, in the data set with PC3-DAB2IP KD cells (setting [2]), the body weight entry is “no changes in body weight”, the “number of lung metastases” value is given as “significant reduction in the number of lung metastases”, the primary tumor sizes result is “difference was not statistically significant” and the “sizes of lung metastases” value is reported as “significantly smaller”. In the data set with PC3-DAB2IP KD cells (setting [2]), the total metastatic burden entry is “even more significantly reduced” and the “tumor cell dissemination to local lymph nodes” value is “reduced, but not to a significant extent”. In the data set with PC3-DAB2IP KD cells (27 days after cell implantation, treated 10 days, vehicle 30%), this compound returned an overall survival of 70%. Besides, the “haptotactic cell migration toward fibronectin” value with A172-A2 glioma cells is “dose-dependent inhibition of cell migration”. For the same compound, the “effect on ERK and Akt activities in absence of EphA2” value in the data set with ERK and Akt activities was “neither doxazosin nor ephrin-A1-Fc was able to inhibit ERK and Akt activities; also recorded: notable increase in ERK and Akt activation”.
